≈ marks a conversion by molar mass, not a printed value.
Assay: Water solubility of merocyanine (C)
Assay type: physicochemical
Conditions: at 20° C.
From the text: It is therefore necessary to be able to formulate UV-screening agents of merocyanine type in an aqueous medium. In particular, for cosmetic quality and performance benefits, it is advantageous that this aqueous medium be a single-phase medium.

- solubility: ~0.5 mg/mL (≈ 1550 µM)
Structure (SMILES): CCOCCOC(=O)/C(C#N)=C1\C=C(NCCCOC)CCC1 [Compound (C), 2-ethoxyethyl (2Z)-cyano{3-[(3-methoxypropyl)amino]cyclohex-2-en-1-ylidene}ethanoate]
